According to patent US20200399308A1, “COMPOUNDS AND METHODS FOR ELICITING ANTIMICROBIAL ACTIVITY” (Technion Research & Development Foundation Limited, priority 2018, published 2020):
“Also recorded” adds a separate entry of the source. Non-standard residues stand in square brackets, D forms with d. Residues, ends and D or L forms follow the SMILES beside them. *: point of attachment. 12Ado = NCCCCCCCCCCCC(=O)O; Decanoyl = CCCCCCCCCC(=O)*; Orn = NCCC[CH](N)C(=O)O

Key:
E. coli 25922 [1] = assay: Cytoplasmic membrane depolarization (DiSC35); type: cell-based, Escherichia coli; details: low Compound B concentrations
Protocol: Cytoplasmic membrane depolarization measurements were assessed by monitoring the displacement of 3,39-dipropylthiadicarbocyanine iodide (DiSC35), a lipophilic potentiometric dye. Mid-logarithmic phase E. coli 25922 at OD 0.6 nm was centrifuged for 5 min at 15,000 g. The pellet was washed twice with 5 mM HEPES containing 5 mM glucose and 2 mM EDTA before addition of DiSC35 ([…]) and quenching at room temperature in the dark for 1 hour. KCl was then added (100 mM) and the suspension incubated overnight (4° C.). One hundred eighty microliters of this bacterial suspension was placed in a black 96-well plate, and fluorescence was recorded until signal stabilization (excitation 620 nm, emission 680 nm). Thereafter […] of the tested compound was added and the fluorescence recorded for up to 30 minutes at 37° C. with shaking. Data were obtained from at least 2 independent experiments performed in duplicate.
(FU denotes fluorescence units; triangles denote Compound B, circles denote PMB, squares denote untreated control; error bars=SD).

[2] = test system: Escherichia coli mutant ML-35p; assay: Outer and cytoplasmic membrane permeabilization (nitrocefin / ONPG); type: cell-based; details: E. coli ML-35p, buffer, 16 minutes after addition
Protocol: Membrane permeabilization was assessed using E. coli ML-35p as described elsewhere, to monitor the ability of the compounds to perturb the outer and/or cytoplasmic membranes. Reported data were obtained from ≥2 independent experiments performed in duplicate.
Additional support for this view was obtained by comparing the compounds' susceptibility to damage gram-negative bacteria membranes, using the E. coli mutant ML-35p. Widely described in the literature, the mutant was considered herein as representative of all gram-negative bacteria, rather than a specific species. This mutant is constitutive for cytoplasmic β-galactosidase, lacks lactose permease, and expresses a plasmid-encoded periplasmic β-lactamase. Two chromogenic reporter molecules (nitrocefin and 2-nitrophenyl β-d-galactopyranoside, respectively, absorbing at 486 and 420 nm) were used to monitor permeabilization of the outer membrane and/or cytoplasmic membrane in a single assay.

E. coli 25922 [3] = assay: Growth kinetics by absorbance at 620 nm; type: cell-based, Escherichia coli; details: 10 μM Compound B, culture medium
Protocol: FIGS. 6A-B present growth kinetics assessed by measuring the absorbance at 620 nm of E. coli 25922 (FIG. 6A) and K. pneumoniae 1287 (FIG. 6B) in absence or presence of the 10 μM of Compound B (circles denote vehicle control, triangles denote Compound B; error bars represent standard deviations).

E. coli = assay: Minimal bactericidal concentration; type: cell-based; details: Escherichia coli
Escherichia coli 25922 [4] = assay: Checkerboard assay with lysozyme in broth medium; type: cell-based
Protocol: (§1) Inhibition was determined after 24 hours of incubation.

[5] = test system: Klebsiella pneumoniae 1287; assay: Checkerboard assay with lysozyme in broth medium; type: cell-based; details: growth medium, 2.5, 5, 10 μM Compound B combined with lysozyme, 24 hours
Protocol: as §1

Escherichia coli 25922 [6] = assay: Serum survival assay; type: cell-based
Protocol: (§2) Serum survival assays were performed using fresh serum from normal mice or human serum from the Israel Blood Bank; samples were pooled and stored in aliquots at −80° C. until use. Time-dependent killing was determined in a final volume of 125 μL consisting of 112.5 μL of serum containing either a tested compound, egg white lysozyme (Amresco), lactoferrin (Vivinal lactoferrin FD; DMV International, Delhi, N.Y.), anti-murine C5/C5a antibody (25 μg/mL; ab194637; Abcam), or their combination, as specified. These solutions were supplemented with 12.5 μL of bacteria suspended in PBS at the desired concentration. After the specified time points of exposure, cultures were subjected to serial 10-fold dilutions in saline (0.85% NaCl) and plated for bacterial enumeration after incubation at 37° C. for an additional 24 hours. In heat-treated experiments, sera were incubated at 56° C. for 30 minutes for protein inactivation. Data were obtained from 3 independent experiments.

[7] = test system: Klebsiella pneumoniae 1287; assay: Serum survival assay; type: cell-based; details: 10 μM Compound B
Protocol: as §2

Escherichia coli 25922 [8] = assay: Mouse thigh infection model; type: in vivo; details: normal mice inoculated intramuscularly, treated s.c. 1 hour thereafter, CFU 24 hours post-treatment
Protocol: (§3) Mouse thigh infection model was afforded from normal ICR mice, which were inoculated intramuscularly and treated subcutaneously 1 hour thereafter with a tested compound or polymyxin B (PMB; Sigma-Aldrich) as described elsewhere. P values were calculated using a 1-tailed t test (assuming unequal variance). A P value of <0.05 is considered statistically significant.

[9] = test system: Klebsiella pneumoniae 1287; assay: Mouse thigh infection model; type: in vivo; details: normal mice inoculated intramuscularly, treated s.c. 1 hour thereafter
Protocol: as §3

[10] = test system: wild-type isogenic strain; assay: MIC on wild-type isogenic strain; type: cell-based; details: Escherichia coli, data not shown
Description: The following strains were used for the studies below: Escherichia coli strain ML-35p (American Type Culture Collection [ATCC]; […]. The following gram-positive species was investigated: methicillin-resistant Staphylococcus aureus clinical isolate USA300 10017 (a gift from Dr. Gili Regev-Yochay, Infectious Disease Unit, Sheba Medical Center, Israel). Additional Escherichia coli strains tested include β-lactamase producer 35218; clinical isolate strains 14182, 14384, and U16327; and two K12 isogenic mutants, AG100 and AG100A. Unless otherwise stated, all bacterial cultures were grown overnight in Luria-Bertani broth (LB).
Minimal inhibitory concentrations (MICs) were determined as previously described. […] MICs were determined by microdilution susceptibility testing in 96-well plates (by Nunc) using inocula of 10^5 bacteria per ml. Cell populations were evaluated by optical density measurements at 620 nm and were calibrated against a set of standards. Hundred (100) μl of a bacterial suspension were added to 100 μl of culture medium (control) or to 100 μl of culture medium containing various tested compound concentrations in 2-fold serial dilutions. Inhibition of proliferation was determined by optical density measurements at 620 nm after an incubation period of 24 hours at 37° C. Data were obtained from ≥2 independent experiments performed in duplicate.

K. pneumoniae = assay: Minimal bactericidal concentration; type: cell-based; details: Klebsiella pneumoniae

CCCCCCCCCC(=O)NC(CCCN)C(=O)NC(CCCN)C(=O)NCCCCCCCCCCCC(=O)NC(CCCN)C(N)=O (centres unmarked) [Compound B] (Decanoyl-[Orn][Orn][12Ado][Orn]-NH2; configuration not given here)
CM depolarization (DiSC35 fluorescence) (E. coli 25922 [1]): partial depolarization of the CM | cytoplasmic membrane permeabilization [2]: similarly unable to permeabilize the cytoplasmic membrane at least up to approximately 10 μM; also recorded: some CM permeabilization occurred only at 10 mM | outer membrane permeabilization [2]: similarly potent in inducing outer membrane permeabilization; also recorded: as efficient as dermaseptin in altering outer membrane permeability | growth kinetics in presence vs absence of compound (E. coli 25922 [3]): practically identical curves | MBC (E. coli): > 50 µM | growth inhibition in combination with lysozyme (Escherichia coli 25922 [4]; growth medium, 2.5, 5, 10 μM Compound B combined with lysozyme, 24 hours): dose-dependent synergistic growth inhibition | E. coli counts (final, from 4 log) (Escherichia coli 25922 [4]; medium, 10 μM Compound B plus 18 μM lysozyme): 9 log CFU/mL | growth inhibition in combination with lysozyme [5]: dose-dependent synergistic growth inhibition | inhibition at 10 µM (Escherichia coli 25922 [6]; Escherichia coli, 25922, 80% mouse serum, 10 μM Compound B, 3 h, read-out: growth inhibition in mouse serum): 74% | antibacterial effect in human serum (Escherichia coli 25922 [6]; 10 μM Compound B, absence of exogenous lysozyme): significant growth inhibition | antibacterial effect in human serum (Escherichia coli 25922 [6]; 10 μM Compound B, presence of exogenous lysozyme (18 μM)): potent bactericidal effect | growth inhibition in serum obtained from treated mice (Escherichia coli 25922 [6]; mouse serum obtained 1 hour after subcutaneous administration ([…]), 3 h incubation): 80% | E. coli counts (final, from 4 log) (Escherichia coli 25922 [6]; mouse serum, 10 μM Compound B plus 18 μM lysozyme): 1.7 log CFU/mL | inhibition at 10 µM ([7]; Klebsiella pneumoniae, 1287, 80% mouse serum, 3 h, read-out: growth inhibition in mouse serum): 48% | antibacterial effect in human serum ([7]; absence of exogenous lysozyme): significant growth inhibition | antibacterial effect in human serum ([7]; presence of exogenous lysozyme (18 μM)): potent bactericidal effect | reduction of the number of inoculated E. coli (Escherichia coli 25922 [8]): 80% | effect on proliferation in thigh [9]: significantly inhibited proliferation | MIC [10]: > 50 µM | MBC (K. pneumoniae): > 50 µM
